ChEMBL document CHEMBL5252552, “Defined concatenated α6α1β3γ2 GABAA receptor constructs reveal dual action of pyrazoloquinolinone allosteric modulators” (Bioorg Med Chem, 2019)

How the values were obtained:
[1] = target: T1, Gamma-aminobutyric acid receptor subunit alpha-6/beta-3/gamma-2 (Rattus norvegicus) (UniProt P18508+P30191+P63079); assay: Positive allosteric modulation of rat recombinant GABAA alpha6beta3alpha6-gamma2beta3 receptor expressed in Xenopus laevis oocytes assessed as maximal efficacy at -80 mV holding potential at 10 nM in presence of GABA EC1 to 1.5 by two-electrode voltage-clamp assay; format: cell-based; conditions: Oocyte
[2] = target: T1, Gamma-aminobutyric acid receptor subunit alpha-6/beta-3/gamma-2 (Rattus norvegicus); assay: Positive allosteric modulation of rat recombinant GABAA alpha6beta3alpha6-gamma2beta3 receptor expressed in Xenopus laevis oocytes assessed as maximal current under less potent phase in presence of GABA EC1 to 1.5 by two-electrode voltage-clamp assay relative to control; format: cell-based; conditions: Oocyte, filed as positive allosteric modulator
[3] = target: T1, Gamma-aminobutyric acid receptor subunit alpha-6/beta-3/gamma-2 (Rattus norvegicus); assay: Positive allosteric modulation of rat recombinant GABAA alpha6beta3alpha6-gamma2beta3 receptor expressed in Xenopus laevis oocytes assessed as maximal efficacy at -80 mV holding potential at 1 uM in presence of GABA EC1 to 1.5 by two-electrode voltage-clamp assay; format: cell-based; conditions: Oocyte, filed as positive allosteric modulator
[4] = target: T1, Gamma-aminobutyric acid receptor subunit alpha-6/beta-3/gamma-2 (Rattus norvegicus); assay: Positive allosteric modulation of rat recombinant GABAA alpha6beta3alpha6-gamma2beta3 receptor expressed in Xenopus laevis oocytes assessed as maximal efficacy at -80 mV holding potential at 300 nM in presence of GABA EC1 to 1.5 by two-electrode voltage-clamp assay; format: cell-based; conditions: Oocyte, filed as positive allosteric modulator
[5] = target: T1, Gamma-aminobutyric acid receptor subunit alpha-6/beta-3/gamma-2 (Rattus norvegicus); assay: (§1) Positive allosteric modulation of rat recombinant GABAA alpha6beta3alpha6-gamma2beta3 receptor expressed in Xenopus laevis oocytes assessed as maximal current at -80 mV holding potential under more potent phase in presence of GABA EC1 to 1.5 by two-electrode voltage-clamp assay relative to control; format: cell-based; conditions: Oocyte, filed as positive allosteric modulator
[6] = target: T2, Gamma-aminobutyric acid receptor subunit alpha-6/beta-3/gamma-2 (Rattus norvegicus, UniProt P18508+P30191+P63079); assay: as §1, with “increase in GABA-induced” for “maximal”, “current amplitude” for “current”, “less” for “more”, “assay” for “assay relative to control”; format: cell-based, Oocyte
[7] = target: T1, Gamma-aminobutyric acid receptor subunit alpha-6/beta-3/gamma-2 (Rattus norvegicus); assay: Positive allosteric modulation of rat recombinant GABAA alpha6beta3alpha6-gamma2beta3 receptor expressed in Xenopus laevis oocytes assessed as maximal efficacy at -80 mV holding potential at 3 uM in presence of GABA EC1 to 1.5 by two-electrode voltage-clamp assay; format: cell-based; conditions: Oocyte, filed as positive allosteric modulator
[8] = target: T2, Gamma-aminobutyric acid receptor subunit alpha-6/beta-3/gamma-2; assay: as §1, with “increase in GABA-induced” for “maximal”, “current amplitude” for “current”, “assay” for “assay relative to control”; format: cell-based, Oocyte
[9] = target: T1, Gamma-aminobutyric acid receptor subunit alpha-6/beta-3/gamma-2 (Rattus norvegicus); assay: Positive allosteric modulation of rat recombinant GABAA alpha6beta3alpha6-gamma2beta3 receptor expressed in Xenopus laevis oocytes assessed as maximal efficacy at -80 mV holding potential at 100 nM in presence of GABA EC1 to 1.5 by two-electrode voltage-clamp assay; format: cell-based; conditions: Oocyte, filed as positive allosteric modulator
[10] = target: T1, Gamma-aminobutyric acid receptor subunit alpha-6/beta-3/gamma-2 (Rattus norvegicus); assay: Positive allosteric modulation of rat recombinant GABAA alpha6beta3alpha6-gamma2beta3 receptor expressed in Xenopus laevis oocytes assessed as maximal efficacy at -80 mV holding potential at 1 nM in presence of GABA EC1 to 1.5 by two-electrode voltage-clamp assay; format: cell-based; conditions: Oocyte
[11] = target: T1, Gamma-aminobutyric acid receptor subunit alpha-6/beta-3/gamma-2 (Rattus norvegicus); assay: Positive allosteric modulation of rat recombinant GABAA alpha6beta3alpha6-gamma2beta3 receptor expressed in Xenopus laevis oocytes assessed as maximal efficacy at -80 mV holding potential at 30 uM in presence of GABA EC1 to 1.5 by two-electrode voltage-clamp assay; format: cell-based; conditions: Oocyte, filed as positive allosteric modulator
[12] = target: T1, Gamma-aminobutyric acid receptor subunit alpha-6/beta-3/gamma-2 (Rattus norvegicus); assay: Positive allosteric modulation of rat recombinant GABAA alpha6beta3alpha6-gamma2beta3 receptor expressed in Xenopus laevis oocytes assessed as maximal efficacy at -80 mV holding potential at 10 uM in presence of GABA EC1 to 1.5 by two-electrode voltage-clamp assay; format: cell-based; conditions: Oocyte, filed as positive allosteric modulator
[13] = target: T1, Gamma-aminobutyric acid receptor subunit alpha-6/beta-3/gamma-2 (Rattus norvegicus); assay: Positive allosteric modulation of rat recombinant GABAA alpha6beta3alpha6-gamma2beta3 receptor expressed in Xenopus laevis oocytes assessed as maximal efficacy at -80 mV holding potential at 30 nM in presence of GABA EC1 to 1.5 by two-electrode voltage-clamp assay; format: cell-based; conditions: Oocyte
[14] = target: T1, Gamma-aminobutyric acid receptor subunit alpha-6/beta-3/gamma-2 (Rattus norvegicus); assay: Positive allosteric modulation of rat recombinant GABAA alpha6beta3alpha6-gamma2beta3 receptor expressed in Xenopus laevis oocytes assessed as maximal efficacy at -80 mV holding potential at 3 nM in presence of GABA EC1 to 1.5 by two-electrode voltage-clamp assay; format: cell-based; conditions: Oocyte
[15] = target: T3, Gamma-aminobutyric acid receptor subunit alpha-1/alpha-6/beta-3/gamma-2 (Rattus norvegicus) (UniProt P18508+P30191+P62813+P63079); assay: Positive allosteric modulation of rat recombinant GABAA alpha6beta3alpha1-gamma2beta3 receptor expressed in Xenopus laevis oocytes assessed as maximal efficacy at -80 mV holding potential at 30 nM in presence of GABA EC1 to 1.5 by two-electrode voltage-clamp assay; format: cell-based; conditions: Oocyte
[16] = target: T4, Gamma-aminobutyric acid receptor subunit alpha-1/beta-3/gamma-2 (Rattus norvegicus) (UniProt P18508+P62813+P63079); assay: Positive allosteric modulation of rat recombinant GABAA alpha1beta3alpha1-gamma2beta3 receptor expressed in Xenopus laevis oocytes assessed as maximal efficacy at -80 mV holding potential at 300 nM in presence of GABA EC1 to 1.5 by two-electrode voltage-clamp assay; format: cell-based; conditions: Oocyte
[17] = target: T3, Gamma-aminobutyric acid receptor subunit alpha-1/alpha-6/beta-3/gamma-2 (Rattus norvegicus); assay: Positive allosteric modulation of rat recombinant GABAA alpha6beta3alpha1-gamma2beta3 receptor expressed in Xenopus laevis oocytes assessed as maximal efficacy at -80 mV holding potential at 100 nM in presence of GABA EC1 to 1.5 by two-electrode voltage-clamp assay; format: cell-based; conditions: Oocyte
[18] = target: T4, Gamma-aminobutyric acid receptor subunit alpha-1/beta-3/gamma-2 (Rattus norvegicus); assay: Positive allosteric modulation of rat recombinant GABAA alpha1beta3alpha1-gamma2beta3 receptor expressed in Xenopus laevis oocytes assessed as maximal efficacy at -80 mV holding potential at 100 nM in presence of GABA EC1 to 1.5 by two-electrode voltage-clamp assay; format: cell-based; conditions: Oocyte
[19] = target: T4, Gamma-aminobutyric acid receptor subunit alpha-1/beta-3/gamma-2 (Rattus norvegicus); assay: Positive allosteric modulation of rat recombinant GABAA alpha1beta3alpha1-gamma2beta3 receptor expressed in Xenopus laevis oocytes assessed as maximal efficacy at -80 mV holding potential at 30 nM in presence of GABA EC1 to 1.5 by two-electrode voltage-clamp assay; format: cell-based; conditions: Oocyte
[20] = target: T3, Gamma-aminobutyric acid receptor subunit alpha-1/alpha-6/beta-3/gamma-2 (Rattus norvegicus); assay: Positive allosteric modulation of rat recombinant GABAA alpha6beta3alpha1-gamma2beta3 receptor expressed in Xenopus laevis oocytes assessed as maximal efficacy at -80 mV holding potential at 300 nM in presence of GABA EC1 to 1.5 by two-electrode voltage-clamp assay; format: cell-based; conditions: Oocyte
[21] = target: T4, Gamma-aminobutyric acid receptor subunit alpha-1/beta-3/gamma-2 (Rattus norvegicus); assay: Positive allosteric modulation of rat recombinant GABAA alpha1beta3alpha1-gamma2beta3 receptor expressed in Xenopus laevis oocytes assessed as maximal efficacy at -80 mV holding potential at 30 uM in presence of GABA EC1 to 1.5 by two-electrode voltage-clamp assay; format: cell-based; conditions: Oocyte, filed as positive allosteric modulator
[22] = target: T3, Gamma-aminobutyric acid receptor subunit alpha-1/alpha-6/beta-3/gamma-2 (Rattus norvegicus); assay: Positive allosteric modulation of rat recombinant GABAA alpha6beta3alpha1-gamma2beta3 receptor expressed in Xenopus laevis oocytes assessed as maximal efficacy at -80 mV holding potential at 30 uM in presence of GABA EC1 to 1.5 by two-electrode voltage-clamp assay; format: cell-based; conditions: Oocyte, filed as positive allosteric modulator
[23] = target: T2, Gamma-aminobutyric acid receptor subunit alpha-6/beta-3/gamma-2; assay: Positive allosteric modulation of rat recombinant GABAA alpha6beta3alpha6-gamma2beta3 receptor expressed in Xenopus laevis oocytes assessed as increase in GABA-induced current amplitude at -80 mV holding potential in presence of GABA EC1 to 1.5 by two-electrode voltage-clamp assay; format: cell-based, Oocyte
[24] = target: T1, Gamma-aminobutyric acid receptor subunit alpha-6/beta-3/gamma-2 (Rattus norvegicus); assay: Positive allosteric modulation of rat recombinant GABAA alpha6beta3alpha6-gamma2beta3 receptor expressed in Xenopus laevis oocytes assessed as maximal current at -80 mV holding potential in presence of GABA EC1 to 1.5 by two-electrode voltage-clamp assay relative to control; format: cell-based; conditions: Oocyte, filed as positive allosteric modulator
[25] = filed as positive allosteric modulator

T2 sequence (P18508 whole entry): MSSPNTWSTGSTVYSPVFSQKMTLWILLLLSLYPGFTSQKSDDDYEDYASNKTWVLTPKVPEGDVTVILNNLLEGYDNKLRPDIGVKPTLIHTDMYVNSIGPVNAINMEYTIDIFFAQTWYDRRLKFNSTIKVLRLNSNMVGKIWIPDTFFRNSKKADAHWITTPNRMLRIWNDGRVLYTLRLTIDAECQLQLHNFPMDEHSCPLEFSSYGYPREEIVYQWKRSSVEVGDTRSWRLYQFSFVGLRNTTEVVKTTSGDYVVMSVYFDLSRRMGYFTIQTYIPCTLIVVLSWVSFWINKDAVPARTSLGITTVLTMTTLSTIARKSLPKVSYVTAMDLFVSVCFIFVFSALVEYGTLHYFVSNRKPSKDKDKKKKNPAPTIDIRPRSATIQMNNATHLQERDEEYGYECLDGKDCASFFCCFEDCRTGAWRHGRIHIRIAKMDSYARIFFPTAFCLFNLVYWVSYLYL
T2 sequence (P30191 whole entry): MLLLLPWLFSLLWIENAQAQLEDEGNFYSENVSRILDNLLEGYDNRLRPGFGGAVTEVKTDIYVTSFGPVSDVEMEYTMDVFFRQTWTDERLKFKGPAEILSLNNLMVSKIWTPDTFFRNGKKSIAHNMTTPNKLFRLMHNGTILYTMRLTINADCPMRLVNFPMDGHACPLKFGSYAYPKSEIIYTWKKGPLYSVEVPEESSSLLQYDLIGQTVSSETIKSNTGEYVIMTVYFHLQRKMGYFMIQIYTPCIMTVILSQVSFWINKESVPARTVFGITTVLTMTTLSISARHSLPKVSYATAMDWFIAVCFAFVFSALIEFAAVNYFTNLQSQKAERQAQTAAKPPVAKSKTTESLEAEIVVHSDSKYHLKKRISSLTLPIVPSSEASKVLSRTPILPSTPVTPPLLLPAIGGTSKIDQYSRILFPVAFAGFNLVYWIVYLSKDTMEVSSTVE
T2 sequence (P63079 whole entry): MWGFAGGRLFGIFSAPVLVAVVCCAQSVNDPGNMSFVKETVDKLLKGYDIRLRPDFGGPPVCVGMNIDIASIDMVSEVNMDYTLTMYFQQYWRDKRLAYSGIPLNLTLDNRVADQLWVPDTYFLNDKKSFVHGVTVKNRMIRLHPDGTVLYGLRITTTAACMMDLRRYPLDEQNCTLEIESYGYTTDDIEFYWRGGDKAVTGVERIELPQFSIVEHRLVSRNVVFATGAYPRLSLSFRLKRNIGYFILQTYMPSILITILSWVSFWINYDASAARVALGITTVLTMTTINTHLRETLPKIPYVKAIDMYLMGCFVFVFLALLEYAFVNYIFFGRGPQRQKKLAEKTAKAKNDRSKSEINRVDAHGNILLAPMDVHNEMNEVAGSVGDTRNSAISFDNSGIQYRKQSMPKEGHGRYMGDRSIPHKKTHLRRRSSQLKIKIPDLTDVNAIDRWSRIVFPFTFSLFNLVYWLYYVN

| Efficacy [1] | %max [2] | Efficacy [3] | Efficacy [4] | %max [5] | EC50 [6] | Efficacy [7] | EC50 [8] | Efficacy [9] | Efficacy [10] | Efficacy [11] | Efficacy [12] | Efficacy [13, 25] | Efficacy [14] | Efficacy [1, 25] | EC50 [23] | %max [24] | Structure (SMILES) | other results |
| --- | --- | --- | --- | --- | --- | --- | --- | --- | --- | --- | --- | --- | --- | --- | --- | --- | --- | --- |
| 28% | 353% | 156% | 118% | 96% | 32 µM | 235% | 0.028 µM | 77% | 6% | 385% | 300% | 46% | 16% |  |  |  | COc1ccc(-n2nc3c4ccc(F)cc4[nH]cc-3c2=O)cc1 |  |
|  | 2970% | 147% | 100% | 49% | 100 µM | 216% | 0.013 µM | 83% | 13% | 1370% | 590% | 62% | 23% | 43% |  |  | COc1ccc(-n2nc3c4ccc(C(F)(F)F)cc4[nH]cc-3c2=O)cc1 | Efficacy [15]: 1%; Efficacy [16]: 18%; Efficacy [17]: 5%; Efficacy [18]: 14%; Efficacy [19]: 9%; Efficacy [20]: 10%; Efficacy [21]: 851%; Efficacy [22]: 1570% |
|  |  | 234% | 149% |  |  | 456% |  | 100% | 25% | 1310% | 1020% | 60% | 31% | 40% | 13 µM | 2050% | COc1ccc(-n2nc3c4ccc(C)cc4[nH]cc-3c2=O)cc1 |  |
| 27% |  | 163% | 98% |  |  | 325% |  | 70% | 9% | 732% | 581% |  | 12% |  | 5 µM | 946% | C#Cc1ccc2c3nn(-c4ccc(OC)cc4)c(=O)c-3c[nH]c2c1 | Efficacy [13]: 39% |
| 22% | 796% | 180% | 94% | 56% | 17 µM | 387% | 0.01 µM | 65% | 6% | 703% | 688% | 40% | 13% |  |  |  | COc1ccc(-n2nc3c4ccc(Cl)cc4[nH]cc-3c2=O)cc1 |  |
